Test results reported in ChEMBL document CHEMBL1201862, “PubChem BioAssay data set” (2004).
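All cell lines were grown in 96-well plates and treated with compound for 48 hours. GI50 is the concentration that inhibits growth by half.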 Calls of active or inactive are those of the source. No stated cut-off is given here; in the data, active = GI50 up to about 1.1 µM and inactive = higher.

Legend:
Assay in all cases: NCI anticancer screen, dose series, 48 h
[1] = system: HL-60
[2] = system: NCI-H23
[3] = system: A498
[4] = system: HOP-92
[5] = system: NCI-H226
[6] = system: SW-620
[7] = system: CCRF-CEM
[8] = system: UACC-62
[9] = system: DMS-114
[10] = system: SF-295
[11] = system: KM-20L2
[12] = system: HOP-62
[13] = system: SN12C
[14] = system: HCC 2998
[15] = system: XF498
[16] = system: HOP-18
[17] = system: KM12
[18] = system: HCT-15
[19] = system: SK-MEL-2
[20] = system: SNB-78

Row | SMILES | GI50 [1] | GI50 [2] | GI50 [3] | GI50 [4] | GI50 [5] | GI50 [6] | GI50 [7] | GI50 [8] | GI50 [9] | GI50 [10] | GI50 [11] | GI50 [12] | GI50 [13] | GI50 [14] | GI50 [15] | GI50 [16] | GI50 [17] | GI50 [18] | GI50 [19] | GI50 [20]
1 | O=C(O)CCC(NC(=O)c1ccc(Nc2nc3ccc(C(F)(F)F)cc3nc2-c2ccccc2)cc1)C(=O)O (stereo not given) | > 100 µM (inactive) | > 100 µM (inactive) | > 100 µM (inactive) | > 46.6 µM (inactive) | > 100 µM (inactive) | > 100 µM (inactive) | > 100 µM (inactive) | > 100 µM (inactive) | > 100 µM (inactive) | > 100 µM (inactive) | > 100 µM (inactive) | > 100 µM (inactive) | > 100 µM (inactive) | > 100 µM (inactive) | 98.4 µM (inactive) | 3.37 µM (inactive) | > 100 µM (inactive) | > 100 µM | > 100 µM (inactive) | > 100 µM (inactive)
2 | C=CCCC1(C)CCCNC1=S (stereo not given) | > 100 µM (inactive) | > 100 µM (inactive) | > 100 µM (inactive) | > 100 µM (inactive) | > 100 µM (inactive) | > 100 µM (inactive) | 17.7 µM (inactive) | > 100 µM (inactive) | > 100 µM (inactive) | > 100 µM (inactive) | > 100 µM (inactive) | > 100 µM (inactive) | > 100 µM (inactive) | > 100 µM (inactive) | > 100 µM (inactive) | > 100 µM (inactive) | > 100 µM (inactive) | > 100 µM | > 100 µM (inactive) | –
3 | CCC12CCC[C@@]13C=C[C@H](O3)C(C)(C)C2=O (stereo not given in full) | > 100 µM (inactive) | > 100 µM (inactive) | – | – | > 100 µM (inactive) | > 100 µM (inactive) | > 100 µM (inactive) | > 100 µM (inactive) | > 100 µM (inactive) | > 100 µM (inactive) | > 100 µM (inactive) | > 100 µM (inactive) | > 100 µM (inactive) | > 100 µM (inactive) | – | > 100 µM (inactive) | – | > 100 µM | > 100 µM (inactive) | > 100 µM (inactive)
4 | CN(C)CCNCc1c2ccccc2c(CNCCN(C)C)c2ccccc12 | 20.5 µM (inactive) | 36 µM (inactive) | 27.1 µM (inactive) | 10.4 µM (inactive) | 19.5 µM (inactive) | 18 µM (inactive) | 20.8 µM (inactive) | 26.1 µM (inactive) | 26 µM (inactive) | 49.2 µM (inactive) | 7.29 µM (inactive) | 18 µM (inactive) | 38.9 µM (inactive) | 10.7 µM (inactive) | 58.2 µM (inactive) | 44.4 µM (inactive) | 39.4 µM (inactive) | 41.1 µM | 22.4 µM (inactive) | 41.8 µM (inactive)
